From publication PMC9220251, “Modulation of the 20S Proteasome Activity by Porphyrin Derivatives Is Steered through Their Charge Distribution” (Biomolecules, 2022)

Key:
[1] = system: T1, human 20S proteasome (h20S); experiment: STD-NMR and WaterLOGSY; assay type: binding; settings: 50 mM HEPES, 100 mM NaCl, 1 mM DTT, 298 K; TMPC 175 μM
T1 construct: gene PSMA6; purified 20S core particle, purchased from Boston Biochem; 28 subunits in four heptameric rings; no regulatory particle; with Proteasome subunit beta type-6; Proteasome subunit beta type-7; Proteasome subunit beta type-3; Proteasome subunit beta type-2; Proteasome subunit beta type-1; Proteasome subunit beta type-4

[2] = target: T1, human 20S proteasome (h20S); experiment: Suc-LLVY-AMC hydrolysis, global fit of kcat and Km against TMPC (two-state model, n = […], m = […]); assay type: biochemical; settings: competitive inhibitory site, substrate-free enzyme in basal state A; model also has three cooperative allosteric sites and state B with separate constants (KAU, KAL, KBU, KBL, KBI); 50 mM Tris-HCl pH

Structure (SMILES): C[n+]1ccc(-c2c3nc(c(-c4cc[n+](C)cc4)c4ccc([nH]4)c4ccc([nH]4)c(-c4cc[n+](C)cc4)c4ccc2[nH]4)C=C3)cc1 [TMPC]
- STD-NMR and WaterLOGSY [1]: clearly indicate that the ligand interacts with the h20S
- Kd [2]: 1000 nM
